Tests used:
Caco-2 cell monolayer = experiment: Absorption assessment in Caco-2 cell monolayer; assay type: in vitro ADME
Source text: The Caco-2 cell monolayer model is the standard for predicting human oral absorption. The test samples included: B9:stevioside at 1:0; 1:4; 1:10 and 1:20.
Table 4 tabulates the permeability of methylfolate calcium (B9) in Caco-2 monolayer cell culture.

[1] = Particle size of B9:stevioside solutions; assay type: physicochemical; conditions: Homogenization for 5 min and heat at 80° for 5 min; no unit in table (b98 speaks of nm)
Source text: In certain instances, the stevioside: B9 complex comprises a nanoparticle, or a nanomicelle, with a characteristic size distribution of approximately 2 nm to about 4 nanometers. This size, along with their physical and chemical properties, is believed to be important regarding their bioavailability enhancement properties. Nanoparticle size distribution can be measured using Dynamic Light Scattering (DLS).

[2] = Concentration of B9 in water and solution appearance at B9:stevioside ratios (HPLC); conditions: for Solution Appearance: 15 mg/mL B9 in water
Procedure: Vitamin B9 (5-methyl folate, MW 459.46) was formulated using stevioside to form a complex.
All water solutions were prepared to contain 15 mg/mL B9 and filtered before HPLC analysis.

[3] = Absorption assessment in a rat model (oral pharmacokinetics); assay type: in vivo, Sprague Dawley rat; conditions: rats, oral gavage
Source text: Each group (formulation) had 8 rats (n=8).
Vertical bars represent one standard error of the means (n=8).
The table contains various pharmacokinetic parameters in rats orally administered with various methylfolate Ca (B9) formulations. Shown as Average±SD (% over the 1:0 control formulation).

[4] = dose equivalent to 19 mg/70 kg person, n=8, Average±SD

Structure (SMILES): CN1c2c(nc(N)[nH]c2=O)NCC1CNc1ccc(C(=O)N[C@@H](CCC(=O)[O-])C(=O)O)cc1.CN1c2c(nc(N)[nH]c2=O)NCC1CNc1ccc(C(=O)N[C@@H](CCC(=O)[O-])C(=O)O)cc1.[Ca+2] (stereo partly drawn) [B9:ST 1:0]
- permeability in Caco-2 cell monolayer assay (Caco-2 cell monolayer; Caco-2 monolayer): permeable
- Permeation enhancement (over 1:0) (Caco-2 cell monolayer; Caco-2 monolayer, 76 μg/mL B9, 2 hr): 1.00
- Papp (A-B) (Caco-2 cell monolayer; Caco-2 monolayer, 76 μg/mL B9, assay duration 2 hr): 5.89 ± 0.245 10^−6 · cm· s^−1
- predicted oral absorption (Caco-2 cell monolayer; predicted from the Caco-2 value): 70-80%
- Caco-2 value (rounded) (Caco-2 cell monolayer; text summary of Table 4, unit not given): 6
- Particle Size MN [1]: 1,865
- Particle Size MV [1]: 1,917
- Solution Appearance ([2]; Homogenization for 5 min and heat at 80° for 5 min): Suspension
- Concentration (mg/mL in water) ([2]; Homogenization for 5 min and heat at 80° for 5 min, prepared to contain 15 mg/mL B9, filtered before HPLC): 9.2 mg/mL
- Solution Appearance ([2]; No homogenization or heat): Suspension
- AUC0-∞, % over the 1:0 control formulation ([3]; 19 mg/70 kg person equivalent): (100) %
- AUC^0-12, % over the 1:0 control formulation ([3]; 19 mg/70 kg person equivalent): (100) %
- CL, % over the 1:0 control formulation ([3]; 19 mg/70 kg person equivalent): (100) %
- Cmax, % over the 1:0 control formulation ([3]; 19 mg/70 kg person equivalent): (100) %
- MRT0-∞, % over the 1:0 control formulation ([3]; 19 mg/70 kg person equivalent): (100) %
- T1/2, % over the 1:0 control formulation ([3]; 19 mg/70 kg person equivalent): (100) %
- Tmax, % over the 1:0 control formulation ([3]; 19 mg/70 kg person equivalent): (100) %
- Vss, % over the 1:0 control formulation ([3]; 19 mg/70 kg person equivalent): (100) %
- CL [3, 4]: 0.69 ± 0.06 mL/h kg^−1
- Cmax [3, 4]: 0.63 ± 0.04955 µg/mL
- MRT0-∞ [3, 4]: 12.41 ± 2.40 h
- T1/2 [3, 4]: 8.60 ± 1.92 h
- Tmax [3, 4]: 1.59 ± 0.36 h
- Vss [3, 4]: 0.0077 ± 0.00095 L/kg

— patent publication US20160271155A1, “Vitamin Formulations” (NESTEC S.A., priority 2013, published 2016)
